Reference: patent US10329282B2, “Rho-associated protein kinase inhibitor, pharmaceutical composition comprising the same, as well as preparation method and use thereof” (Beijing Tide Pharmaceutical Co., Ltd., priority 2017, dated 2019)

Each compound was assayed against ROCK2 (Homo sapiens (Human), UniProt O75116) (assay: ROCK2 kinase IC50 assay (CISBIO HTRF KinEASE-STK S2 kit)). Conditions: ROCK2 from Carna Biosciences, 2 h incubation at room temperature.
Assay type: biochemical
Protocol: The kinase IC50 was determined by a commercialized CISBIO kinase detection kit, HTRF KinEASE-STK S2 kit (62ST2PEC). ROCK2 (01-119) employed in the reaction was purchased from Carna Biosciences.
Before the assay, the following working solutions as needed were formulated with corresponding reagents according to the instruction of the kinase detection kit: 1×kinase buffer, 5×STK-52 substrate working solution (1.5 μM) and 5×ATP working solution (1.5 μM), 5×ROCK2 kinase working solution, 4×Streptavidin-XL665 working solution, and 4×STK-Ab-Cryptate 2 detection solution. Then the assay was performed according to the following procedure.
A solution of a compound at a concentration of 10000 nM was prepared with the 1×kinase buffer containing 2.5% DMSO. Gradient dilution of the solution of the compound was performed with the kinase buffer containing DMSO, so as to obtain solutions of a test compound at 9 different concentrations. In addition to wells of test compounds, a positive well (containing all the reagents except the compound) and a negative well (containing all the reagents except the test compound and kinase) were set. Except for the control wells (positive and negative wells), a solution of a test compound (4 μL) was added to each of the reaction wells, and a solution of 2.5% DMSO was added to the control wells. Then the substrate (2 μM, i.e., 2 μL 5×STK-S2 substrate working solution) was added to each of the reaction wells. The 5×ROCK2 kinase working solution (2 μL, containing 1.4 ng ROCK2 kinase) was added to each of the reaction wells except for the negative well, the volume of which was made up with the 1×kinase buffer (2 μL). The 5×ATP working solution (2 μL) was added to each of the reaction wells, and the mixtures were incubated at room temperature for 2 hours. After the kinase reaction was complete, the 4×Streptavidin-XL665 working solution was added to each of the reaction wells, the solutions were mixed, followed by immediate addition of the 4×STK-Ab-Cryptate 2 detection solution (5 μL), and the mixtures were incubated at room temperature for 1 hour. The fluorescence signal was read on ENVISION (Perkinelmer) (excitation wavelength: 320 nm, and emission wavelength: 665 nm and 615 nm). The inhibitory rate in each well was calculated based on the fluorescence intensity value: ER (Emission Ratio)=(fluorescence intensity at 665 nm/fluorescence intensity at 615 nm); inhibitory rate=(ERpositive−ERtest compound) (ERpositive−ERnegative)*100%. Curves were plotted and fitted to obtain the median inhibitory concentration (IC50) of each teat compound with the PRISM 5.0 software.

Chain of ROCK2 (O75116 1-553): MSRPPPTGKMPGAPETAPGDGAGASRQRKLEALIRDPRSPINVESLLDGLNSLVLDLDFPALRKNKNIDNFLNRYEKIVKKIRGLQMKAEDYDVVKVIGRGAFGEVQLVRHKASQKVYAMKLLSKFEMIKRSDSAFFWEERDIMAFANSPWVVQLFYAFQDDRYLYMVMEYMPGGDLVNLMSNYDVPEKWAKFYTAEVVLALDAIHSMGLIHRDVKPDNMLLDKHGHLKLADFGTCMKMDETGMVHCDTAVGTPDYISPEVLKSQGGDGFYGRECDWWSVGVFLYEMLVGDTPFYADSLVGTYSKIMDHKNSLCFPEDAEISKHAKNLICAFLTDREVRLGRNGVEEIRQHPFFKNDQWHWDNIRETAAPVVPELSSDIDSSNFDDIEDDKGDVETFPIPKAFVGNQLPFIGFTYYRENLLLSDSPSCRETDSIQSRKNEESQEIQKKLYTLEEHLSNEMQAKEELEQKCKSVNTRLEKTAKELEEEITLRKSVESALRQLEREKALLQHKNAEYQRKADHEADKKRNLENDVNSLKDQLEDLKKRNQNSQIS

| SMILES | IC50 [nM] |
| --- | --- |
| CC(C)NC(=O)c1ccc2cc(-c3nccc(Nc4ccc5[nH]ncc5c4)n3)sc2c1 [TDI01106, 2-(4-((1H-indazol-5-yl)amino)pyrimidin-2-yl)-N-isopropylbenzo[b]thiophene-6-carboxamide] | 112 |
| CC(C)NC(=O)c1ccc2cc(-c3nccc(Nc4ccc5[nH]ncc5c4)n3)[nH]c2c1 [TDI01127, 2-(4-((1H-indazol-5-yl)amino)pyrimidin-2-yl)-N-isopropyl-1H-indole-6-carboxamide] | 100 |
| CC(NC(=O)c1cc2ccc(-c3nccc(Nc4ccc5[nH]ncc5c4)n3)cc2[nH]1)c1ccccc1 (stereo not shown) [TDI01140, 6-(4-((1H-indazol-5-yl)amino)pyrimidin-2-yl)-N-(1-phenylethyl)-1H-indole-2-carboxamide] | 109 |
| CN(C)c1cnccc1NC(=O)c1cc2ccc(-c3nccc(Nc4ccc5[nH]ncc5c4)n3)cc2[nH]1 [TDI01289, 6-(4-((1H-indazol-5-yl)amino)pyrimidin-2-yl)-N-(3-(dimethylamino)pyridin-4-yl)-1H-indole-2-carboxamide] | 72 |
| O=C(Nc1cnc2[nH]ccc2c1)c1cc2ccc(-c3nccc(Nc4ccc5[nH]ncc5c4)n3)cc2[nH]1 [TDI01258, 6-(4-((1H-indazol-5-yl)amino)pyrimidin-2-yl)-N-(1H-pyrrolo[2,3-b]pyridin-5-yl)-1H-indole-2-carboxamide] | 62 |
| CC(C)NC(=O)c1cc2ccc(-c3nc(Nc4ccc5[nH]ncc5c4)c4cc[nH]c4n3)cc2[nH]1 [TDI01143, 6-(4-((1H-indazol-5-yl)amino)-7H-pyrrolo[2,3-d]pyrimidin-2-yl)-N-isopropyl-1H-indole-2-carboxamide] | 72 |
| CC(C)NC(=O)c1cc2ccc(-c3nccc(Nc4ccc5[nH]ncc5c4)n3)cc2s1 [TDI01104, 6-(4-((1H-indazol-5-yl)amino)pyrimidin-2-yl)-N-isopropylbenzo[b]thiophene-2-carboxamide] | 71 |
| CN1CCN(c2ccc(NC(=O)c3cc4ccc(-c5nccc(Nc6ccc7[nH]ncc7c6)n5)cc4[nH]3)cc2)CC1 [TDI01131, 6-(4-((1H-indazol-5-yl)amino)pyrimidin-2-yl)-N-(4-(4-methylpiperazin-1-yl)phenyl)-1H-indole-2-carboxamide] | 101 |
| CN1CCC(N2CCC(NC(=O)c3cc4ccc(-c5nccc(Nc6ccc7[nH]ncc7c6)n5)cc4[nH]3)CC2)CC1 [TDI01317, 6-(4-((1H-indazol-5-yl)amino)pyrimidin-2-yl)-N-(1′-methyl-[1,4′-bipiperidin]-4-yl)-1H-indole-2-carboxamide] | 112 |
| O=C(Nc1ccncc1)c1cc2ccc(-c3nccc(Nc4ccc(-c5cn[nH]c5)cc4)n3)cc2s1 [TDI01393] | 258 |
| Cn1cc(NC(=O)c2cc3ccc(-c4nccc(Nc5ccc6[nH]ncc6c5)n4)cc3[nH]2)cn1 [TDI01134, 6-(4-((1H-indazol-5-yl)amino)pyrimidin-2-yl)-N-(1-methyl-1H-pyrazol-4-yl)-1H-indole-2-carboxamide] | 62 |
| O=C(NC1CCOC1)c1cc2ccc(-c3nc(Nc4ccc(-c5cn[nH]c5)cc4)c4sccc4n3)cc2[nH]1 (stereo not shown) [TDI01423, 6-(4-((4-(1H-pyrazol-4-yl)phenyl)amino)thieno[3,2-d]pyrimidin-2-yl)-N-(tetrahydrofuran-3-yl)-1H-indole-2-carboxamide] | 264 |
| COC(=O)c1ccc(NC(=O)c2cc3ccc(-c4nccc(Nc5ccc6[nH]ncc6c5)n4)cc3[nH]2)cc1 [TDI01130, methyl 4-(6-(4-((1H-indazol-5-yl)amino)pyrimidin-2-yl)-1H-indole-2-carboxamido)benzoate] | 33 |
| CC(C)NC(=O)c1cc2ccc(-c3nc(Nc4ccc5[nH]ncc5c4)c4occc4n3)cc2s1 [TDI01135, 6-(4-((1H-indazol-5-yl)amino)furo[3,2-d]pyrimidin-2-yl)-N-isopropylbenzo[b]thiophene-2-carboxamide] | 123 |
| CC(C)NC(=O)c1cc2ccc(-c3nc(Nc4ccc5[nH]ncc5c4)c4sccc4n3)cc2[nH]1 [TDI01141, 6-(4-((1H-indazol-5-yl)amino)thieno[3,2-d]pyrimidin-2-yl)-N-isopropyl-1H-indole-2-carboxamide] | 73 |
| CC(C)NC(=O)C1COc2ccc(-c3nccc(Nc4ccc5[nH]ncc5c4)n3)cc2O1 (stereo not shown) [TDI01103, 7-(4-((1H-indazol-5-yl)amino)pyrimidin-2-yl)-N-isopropyl-2,3-dihydrobenzo[b][1,4]dioxine-2-carboxamide] | 167 |
| CCNC(=O)N1Cc2ccc(-c3nccc(Nc4ccc(-c5cn[nH]c5)cc4)n3)cc2C1 [TDI01411, 5-(4-((4-(1H-pyrazol-4-yl)phenyl)amino)pyrimidin-2-yl)-N-ethylisoindoline-2-carboxamide] | 258 |

Now from value to compound:

| IC50 [nM] | SMILES |
| --- | --- |
| 482 | O=C(c1cc2ccc(-c3nccc(Nc4ccc(-c5cn[nH]c5)cc4)n3)cc2[nH]1)N1CCO[C@@H](CO)C1 [TDI01852, (R)-(6-(4-((4-(1H-pyrazol-4-yl)phenyl)amino)pyrimidin-2-yl)-1H-indel-2-yl)(2-(hydroxymethyl)morpholino)methanone] |
| 333 | CN(C(=O)c1cc2ccc(-c3nccc(Nc4ccc(-c5cn[nH]c5)cc4)n3)cc2[nH]1)C1CCNC1 (stereo not shown) [TDI01345, 6-(4-((4-(1H-pyrazol-4-yl)phenyl)amino)pyrimidin-2-yl)-N-methyl-N-(pyrrolidin-3-yl)-1H-indole-2-carboxamide] |
| 336 | CCN(CC)C(=O)c1cc2ccc(-c3ncc(OC)c(Nc4ccc(-c5cn[nH]c5)cc4)n3)cc2[nH]1 [TDI01823, 6-(4-((4-(1H-pyrazol-4-yl)phenyl)amino)-5-methoxypyrimidin-2-yl)-N,N-diethyl-1H-indole-2-carboxamide] |
| 30 | O=C(Nc1cn[nH]c1)c1cc2ccc(-c3nccc(Nc4ccc5[nH]ncc5c4)n3)cc2[nH]1 [TDI01199, 6-(4-((1H-indazol-5-yl)amino)pyrimidin-2-yl)-N-(1H-pyrazol-4-yl)-1H-indole-2-carboxamide] |
| 210 | C[C@@H](NC(=O)c1cc2ccc(-c3nccc(Nc4ccc(-c5cn[nH]c5)cc4)n3)cc2[nH]1)c1ccncc1 [TDI01849B, (R)-6-(4-((4-(1H-pyrazol-4-yl)phenyl)amino)pyrimidin-2-yl)-N-(1-(pyridin-4-yl)ethyl)-1H-indole-2-carboxamide] |
| 211 | CNC(=O)c1cc2ccc(-c3nccc(Nc4ccc(-c5cn[nH]c5)cc4)n3)cc2[nH]1 [TDI01296, 6-(4-((4-(1H-pyrazol-4-yl)phenyl)amino)pyrimidin-2-yl)-N-methyl-1H-indole-2-carboxamide] |
| 463 | CC(C)OC(=O)c1cc2ccc(-c3nccc(Nc4ccc(-c5cn[nH]c5)cc4)n3)cc2[nH]1 [TDI01299, isopropyl 6-(4-((4-(1H-pyrazol-4-yl)phenyl)amino)pyrimidin-2-yl)-1H-indole-2-carboxylate] |
| 477 | CN(C(=O)c1cc2ccc(-c3nccc(Nc4ccc(-c5cn[nH]c5)cc4)n3)cc2[nH]1)C1CCC1 [TDI01420] |
| 109 | CC(C)NC(=O)c1cc2ccc(-c3nc(Nc4ccc(-c5cn[nH]c5)cc4)c4sccc4n3)cc2[nH]1 [TDI01370, 6-(4-((4-(1H-pyrazol-4-yl)phenyl)amino)thieno[3,2-d]pyrimidin-2-yl)-N-isopropyl-1H-indole-2-carboxamide] |
| 97 | CN(C(=O)c1cc2ccc(-c3nccc(Nc4ccc(-c5cn[nH]c5)cc4)n3)cc2[nH]1)C1COC1 [TDI01344, 6-(4-((4-(1H-pyrazol-4-yl)phenyl)amino)pyrimidin-2-yl)-N-methyl-N-(oxetan-3-yl)-1H-indole-2-carboxamide] |
| 262 | CCN(CCO)C(=O)c1cc2ccc(-c3nccc(Nc4ccc(-c5cn[nH]c5)cc4)n3)cc2[nH]1 [TDI01415, 6-(4-((4-(1H-pyrazol-4-yl)phenyl)amino)pyrimidin-2-yl)-N-ethyl-N-(2-hydroxyethyl)-1H-indole-2-carboxamide] |
| 115 | O=C(NC1CCOCC1)c1cc2ccc(-c3nccc(Nc4ccc(-c5cn[nH]c5)cc4)n3)cc2[nH]1 [TDI01338, 6-(4-((4-(1H-pyrazol-4-yl)phenyl)amino)pyrimidin-2-yl)-N-(tetrahydro-2H-pyran-4-yl)-1H-indole-2-carboxamide] |
| 121 | O=C(NC1CCOC1)c1cc2ccc(-c3nccc(Nc4ccc(-c5cn[nH]c5)cc4)n3)cc2[nH]1 (stereo not shown) [TDI01337, 6-(4-((4-(1H-pyrazol-4-yl)phenyl)amino)pyrimidin-2-yl)-N-(tetrahydrofuran-3-yl)-1H-indole-2-carboxamide] |
| 260 | CN(C)C(=O)N1Cc2ccc(-c3nccc(Nc4ccc(-c5cn[nH]c5)cc4)n3)cc2C1 [TDI01366, 5-(4-((4-(1H-pyrazol-4-yl)phenyl)amino)pyrimidin-2-yl)-N,N-dimethylisoindoline-2-carboxamide] |
